From patent US8962689B2, “Medium chain dicarboxylic acids, their derivates and metabolic disorders” (Nestec S.A., priority 2008, dated 2015)

Columns and labels:
Assay type in all cases: in vivo, human
healthy subjects = experiment: Cross-over single-blind pilot study, mixed formula meal with sebacic acid (C10), healthy subjects; details: for Glucose AUC / Insulin AUC / Total ISR (insulin secretion rate): 0-420 minutes, mean
Protocol: (§1) Ingestion of the different meals was performed at 100 min.
(§2) The acute effects of oral ingestion of sebacic acid on postprandial glycemia, hepatic gluconeogenesis and glycogenolysis were tested in T2D subjects and healthy volunteers during ingestion of a mixed meal at breakfast.
(§3) Type 2 diabetic patients and healthy subjects were matched for gender distribution, age, and body mass index as reported in the following table 1:
(§4) The subjects ingested the following formula meal
(§5) No C10 group (control group): 50% CHO, 15% protein and 35% lipids plus water
(§6) 10 g C10 group: 50% CHO, 15% protein and 35% lipids plus 10 g of C10 plus water

T2D subjects = experiment: Cross-over single-blind pilot study, mixed formula meal with sebacic acid (C10), T2D subjects; details: for EGP (endogenous glucose production) / Gluconeogenesis / Glucose clearance / Total Ra (rate of appearance of deuterated glucose) / Glucose AUC / Insulin AUC / Total ISR (insulin secretion rate): type 2 diabetic subjects; for Glucose AUC / Insulin AUC / Total ISR (insulin secretion rate): 0-420 minutes, mean
Protocol: as §1, §2, §3, §4, §5, §6

[1] = Time course of plasma sebacate in healthy subjects
Protocol: FIG. 4 reports the time course of plasma sebacate in healthy subjects.
FIG. 4 reports the time course of plasma sebacate in healthy subjects. The peak was reached after 320 minutes from the beginning of the experiment, i.e. […] after the ingestion of the meal enriched with C10. C10 peaked later (delay of 40 minutes) after 23 g C10 ingestion.

[2] = Time course of plasma sebacate in T2D subjects
Protocol: FIG. 5 reports the time course of plasma sebacate in T2D subjects.
FIG. 5 reports the time course of plasma sebacate in T2D subjects. […] Another difference was that in diabetics the two curves (10 g vs. 23 g) were overlapped up to 320 minutes, and then the concentration of C10 declined slower in the 23 g C10 fed patients compared with 10 g of C10.

[3] = healthy subjects, 10 g C10 meal
[4] = healthy subjects, 23 g C10 meal
[5] = T2D subjects (n=10), 10 g meal, vs control meal
[6] = T2D subjects (n=10), 23 g C10 DA meal, vs control meal

Delay of plasma C10 peak after 23 g C10 ingestion ([1]; 23 g C10 ingestion): 40 min | Time of plasma sebacate peak after the ingestion of the meal ([1]; oral, meal enriched with C10): 200 min | Time of plasma sebacate peak from the beginning of the experiment ([1]; oral, meal enriched with C10): 320 min | Plasma C10 peak times compared with controls ([2]; T2D subjects): the peak times were maintained | Plasma C10 concentration relative to values reached in controls ([2]; T2D subjects vs healthy controls): about 1.5 times
Compound: O=C(O)CCCCCCCCC(=O)O [C10, sebacic acid]
Change in postprandial insulinemia AUC (healthy subjects; healthy subjects (n=10), 23 g sebacic acid, vs control meal): −38% | EGP (endogenous glucose production) (healthy subjects; [3]): 6.30 ± 2.45 μmol · min^−1 · kgffm^−1 | Gluconeogenesis (healthy subjects; [3]): 31.28 ± 5.07% | Glucose clearance (healthy subjects; [3]): 0.164 ± 0.0144 L/h/kg | Total Ra (rate of appearance of deuterated glucose) (healthy subjects; [3]): 20.60 ± 2.88 μmol · min^−1 · kgffm^−1 | Glucose AUC (healthy subjects; [3]): 37400 mg·min/dL | Insulin AUC (healthy subjects; [3]): 51100 pM·min | Total ISR (insulin secretion rate) (healthy subjects; [3]): 101.15 nmol | EGP (endogenous glucose production) (healthy subjects; [4]): 6.172 ± 0.68 μmol · min^−1 · kgffm^−1 | Gluconeogenesis (healthy subjects; [4]): 31.20 ± 3.63% | Glucose clearance (healthy subjects; [4]): 0.164 ± 0.0156 L/h/kg | Total Ra (rate of appearance of deuterated glucose) (healthy subjects; [4]): 21.20 ± 1.30 μmol · min^−1 · kgffm^−1 | Glucose AUC (healthy subjects; [4]): 38100 mg·min/dL | Insulin AUC (healthy subjects; [4]): 39200 pM·min | Total ISR (insulin secretion rate) (healthy subjects; [4]): 93.60 nmol | Glucose clearance, result in words (healthy subjects; healthy subjects, C10 ingestion): significantly improved | ISR, result in words (healthy subjects; healthy subjects, meal with lipids substituted with 23 g C10): significantly reduced | Change in postprandial Endogenous Glucose Production (T2D subjects; [5]): −10% | Change in postprandial Gluconeogenesis (%) (T2D subjects; [5]): −2.1% | Change in postprandial glycemia area under the curve (AUC) (T2D subjects; [5]): −17% | Increase in postprandial glucose clearance (T2D subjects; [5]): +12.6% | Change in postprandial Endogenous Glucose Production (T2D subjects; [6]): −9% | Change in postprandial Gluconeogenesis (%) (T2D subjects; [6]): −2.3% | Change in postprandial glycemia area under the curve (AUC) (T2D subjects; [6]): −16% | Change in postprandial insulin secretion rate (T2D subjects; [6]): −35% | Increase in postprandial glucose clearance (T2D subjects; [6]): +8.2% | Glucose clearance, result in words (T2D subjects; diabetic patients, C10 ingestion): significantly improved | GNG, result in words (T2D subjects; diabetic patients, both C10 enriched meals): significantly reduced | Glucose AUC, result in words (T2D subjects; diabetic patients, meal containing 10 g of C10): significantly lower | ISR, result in words (T2D subjects; diabetic patients, meal with lipids substituted with 23 g C10): significantly reduced | EGP (endogenous glucose production) (T2D subjects; 10 g C10 meal): 7.81 ± 3.27 μmol · min^−1 · kgffm^−1 | Gluconeogenesis (T2D subjects; 10 g C10 meal): 40.862 ± 3.62 % | Glucose clearance (T2D subjects; 10 g C10 meal): 0.106 ± 0.0078 L/h/kg | Total Ra (rate of appearance of deuterated glucose) (T2D subjects; 10 g C10 meal): 19.60 ± 2.41 μmol · min^−1 · kgffm^−1 | Glucose AUC (T2D subjects; 10 g C10 meal): 43700 mg·min/dL | Insulin AUC (T2D subjects; 10 g C10 meal): 33500 pM·min | Total ISR (insulin secretion rate) (T2D subjects; 10 g C10 meal): 213.69 nmol | EGP (endogenous glucose production) (T2D subjects; 23 g C10 meal): 7.00 ± 2.47 μmol · min^−1 · kgffm^−1 | Gluconeogenesis (T2D subjects; 23 g C10 meal): 40.72 ± 4.00 % | Glucose clearance (T2D subjects; 23 g C10 meal): 0.103 ± 0.0126 L/h/kg | Total Ra (rate of appearance of deuterated glucose) (T2D subjects; 23 g C10 meal): 20.32 ± 2.19 μmol · min^−1 · kgffm^−1 | Glucose AUC (T2D subjects; 23 g C10 meal): 44200 mg·min/dL | Insulin AUC (T2D subjects; 23 g C10 meal): 29500 pM·min | Total ISR (insulin secretion rate) (T2D subjects; 23 g C10 meal): 142.27 nmol | EGP, result in words (T2D subjects; type 2 diabetics, C10 enriched meals compared with the standard meal): significantly reduced
